Target: T1, human nicotinic alpha7 WT receptor (Homo sapiens, UniProt P36544)
T1 construct: expressed in transfected cells; host or cells: GH4C1 cells (rat pituitary-derived cell line), RPA clone #34.7
Assay: Nicotinic alpha 7 modulation assay (FLIPR, cytosolic Ca2+ elevation, FLUO-3)
Format: cell-based
Method: Cell Culture Growth Media: F10 medium (Invitrogen), 2.5% Fetal Bovine Serum (FBS, Summit Biotechnology); 15% heat inactivated donor Horse Serum (Invitrogen), 250 μg/ml Hygromycin B (Invitrogen); and 100 nM Methyllicaconite (MLA, Sigma) are added to each new culture by 50-fold dilution of stock solution prepared in H2O at […].
GH4C1 cells (rat pituitary-derived cell line) stably expressing human nicotinic alpha7 WT receptor (RPA clone #34.7) are cultivated in cell culture growth media (described above) at 37 C in a humidified atmosphere containing 4% CO2. […]
The alpha 7 nAChR assay is a cell-based functional readout designed to determine the effect of test compounds to either directly activate nicotinic receptor channels and/or to modulate activation by the native agonist acetylcholine (ACh, Sigma). […]
Assay of test compound effect on activation of the alpha7 nicotinic receptor channel is done by measurement of cytosolic [Ca^2+] elevation as reported by increased FLUO-3 fluorescence using a two addition experimental design and FLIPR™ (Molecular Devices). Following a 30 second baseline recording, test compounds are added online (dilution scheme below) and cell response is recorded for an additional 5 minutes. After a second addition of ACh (30 μM, FAC), plates are read for an additional 4 minutes. […]

T1 sequence (P36544 23-502): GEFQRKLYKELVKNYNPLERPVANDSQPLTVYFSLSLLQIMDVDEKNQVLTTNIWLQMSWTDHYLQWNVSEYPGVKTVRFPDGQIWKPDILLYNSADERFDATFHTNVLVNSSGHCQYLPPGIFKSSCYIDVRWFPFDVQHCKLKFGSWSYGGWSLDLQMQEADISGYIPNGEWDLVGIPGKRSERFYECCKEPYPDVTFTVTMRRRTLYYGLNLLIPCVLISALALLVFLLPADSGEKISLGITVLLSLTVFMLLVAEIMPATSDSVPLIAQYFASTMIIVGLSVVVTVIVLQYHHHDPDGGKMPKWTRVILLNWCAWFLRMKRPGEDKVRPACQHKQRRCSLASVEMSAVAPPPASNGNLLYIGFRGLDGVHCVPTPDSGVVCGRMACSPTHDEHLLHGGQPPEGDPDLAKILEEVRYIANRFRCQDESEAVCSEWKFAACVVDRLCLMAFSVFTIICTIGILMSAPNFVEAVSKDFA

## C#CC1(NC(=O)c2cc(-c3ccc(OC)cc3C)ccc2OCC2CC2)CCCCC1 [I-6, 4-Cyclopropylmethoxy-4′-methoxy-2′-methyl-biphenyl-3-carboxylic acid (1-ethynyl-cyclohexyl)-amide]
  EC50: 220 nM
GH4C1 cells stably expressing human nicotinic alpha7 WT receptor, FLIPR, second addition of ACh 30 μM
  positive allosteric modulation: 255%
